# T1: human growth hormone receptor on IM-9 cells (Homo sapiens, UniProt P10912)
# T1 construct: host or cells: human IM-9 lymphocyte cell line
# T1 sequence (P10912 19-638): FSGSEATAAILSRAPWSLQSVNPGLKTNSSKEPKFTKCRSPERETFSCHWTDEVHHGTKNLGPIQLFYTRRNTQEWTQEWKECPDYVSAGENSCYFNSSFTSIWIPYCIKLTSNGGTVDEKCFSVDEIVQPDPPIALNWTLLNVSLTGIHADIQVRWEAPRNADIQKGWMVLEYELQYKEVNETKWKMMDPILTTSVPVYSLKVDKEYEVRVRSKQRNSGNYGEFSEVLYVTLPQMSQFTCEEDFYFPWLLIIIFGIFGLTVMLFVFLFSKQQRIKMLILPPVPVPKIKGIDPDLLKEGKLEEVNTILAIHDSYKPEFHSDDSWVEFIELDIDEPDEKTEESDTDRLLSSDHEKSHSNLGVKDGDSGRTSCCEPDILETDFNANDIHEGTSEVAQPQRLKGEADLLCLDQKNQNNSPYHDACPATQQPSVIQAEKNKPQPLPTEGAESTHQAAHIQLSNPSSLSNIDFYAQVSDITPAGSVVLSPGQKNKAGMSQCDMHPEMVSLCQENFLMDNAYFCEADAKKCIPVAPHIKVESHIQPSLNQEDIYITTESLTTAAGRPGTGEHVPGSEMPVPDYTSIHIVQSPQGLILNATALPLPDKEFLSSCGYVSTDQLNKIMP
# T2: rat GHR ECD (L43R) (Rattus norvegicus, UniProt P16310, L61R)
# T2 construct: (GHR ECD, amino acids S29-T238) was cloned into pET20b vector; made in house
# T2 sequence (P16310 47-256 L61R): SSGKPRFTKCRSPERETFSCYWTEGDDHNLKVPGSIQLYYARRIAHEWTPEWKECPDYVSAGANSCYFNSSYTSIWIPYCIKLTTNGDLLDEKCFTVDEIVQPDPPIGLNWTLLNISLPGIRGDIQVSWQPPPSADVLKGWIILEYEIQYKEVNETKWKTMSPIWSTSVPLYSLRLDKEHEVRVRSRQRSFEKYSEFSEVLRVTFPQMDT
# How the values were obtained:
# [1] = tested on: rat model of growth hormone deficiency (hypophysectomized rats); assay: Efficacy studies of PEGylated hGH in a rat model of growth hormone deficiency (Example 34); assay type: in vivo
# Method: Preclinical efficacy studies were conducted in a rat model of growth hormone deficiency. In this model, the pituitary gland was surgically removed at approximately 4 weeks of age. The body weights of these hypophysectomized rats were monitored after surgery and animals showing less than 7.5 grams of bodyweight gain over a period of 7 days before the study were deemed successfully hypophysectomized and were randomized amongst the treatment groups. Animals showing more than 2.5 g of weight-loss were deemed not healthy and were excluded from the study. The study was initiated approximately 3 weeks after the surgery.
# Animals were dosed weekly (i.e. dosed on days 0 and 7) with either placebo or increasing PEG-^ahGH dose. An additional treatment group received Genotropin or placebo daily. Bodyweights and blood were collected predose and daily. All animals were sacrificed on day 14.
# For this parameter, the AUC is expressed as AUC above the efficacious IGF-1 plasma level. […] In the current study, the baseline IGF-1 level determined from the placebo group throughout the study was 128 ng/mL. An increase of 34 ng/mL over 128 ng/mL estimates an efficacious IGF-1 level of 162 ng/mL. Thus the AUC above 162 ng/mL was integrated. From this analysis, a dose-dependent increase in AUC above efficacious level was observed after each dose interval.
# The duration of IGF-1 levels induced above the estimated efficacious level after the first dose was determined. At the higher doses, the IGF-1 levels had not returned to baseline before the second dose. In these instances, the IGF-1 concentration was extrapolated to the efficacious level using the calculated terminal slopes. From this evaluation, a dose-dependent increase in duration of IGF-1 concentration above the efficacious level was evident.
# Bone growth was used as an additional pharmacodynamic measure to calculate the PEG-^ahGH ED50. Tibias were collected from each animal at the end of the study and immersion fixed in 10% neutral-buffered formalin followed by radiography. There was a clear dose-dependent increase in tibial bone length for the PEG-^ahGH treated animals. Moreover, there was a dose sparing effect compared to the daily Genotropin treated animals. The amount of Genotropin administered over a 7-day interval is equivalent to 2.1 mg/kg of PEG-^ahGH given weekly (i.e., days 0 and 7). An induction of tibial bone length increase similar to Genotropin is shown for PEG-^ahGH at 0.42 to 1.0 mg/kg. This represents a ≧50% dose-sparing effect for PEG-^ahGH when compared to Genotropin.
# [2] = Rat pharmacokinetics: PEG-ahGH plasma concentration in the rat disease model; assay type: in vivo
# Method: The same plasma samples collected for IGF-1 concentration determination were also assayed for PEG-^ahGH concentration. […] The duration of PEG-^ahGH persistence in the circulation, as well as the overall PEG-^ahGH AUC, increased in a dose-dependent manner. […] The PEG-^ahGH exposure results support the dose-dependent efficacy shown above.
# Plasma concentration versus time profiles for PEG-^ahGH administered subcutaneously at various doses in the rat disease model are shown in Example 34, above.
# [3] = molecular target: T1, human growth hormone receptor on IM-9 cells; assay: IM-9 pSTAT5 bioassay (STAT5 phosphorylation in IM-9 cells); assay type: cell-based; conditions: IM-9 cells
# Text: To further assess the biological activity of modified hGH polypeptides, an assay measuring a downstream marker of hGH's interaction with its receptor was used. The interaction of hGH with its endogenously produced receptor leads to the tyrosine phosphorylation of a signal transducer and activator of transcription family member, STAT5, in the human IM-9 lymphocyte cell line. Two forms of STAT5, STAT5A and STAT5B were identified from an IM-9 cDNA library. See, e.g., Silva et al., Mol. Endocrinol. (1996) 10(5):508-518.
# IM-9 cells were stimulated with hGH polypeptides of the present invention. The human IM-9 lymphocytes were purchased from ATCC (Manassas, Va.) and grown in RPMI 1640 supplemented with sodium pyruvate, penicillin, streptomycin (Invitrogen, Carlsbad, San Diego) and 10% heat inactivated fetal calf serum (Hyclone, Logan, Utah). The IM-9 cells were starved overnight in assay media (phenol-red free RPMI, 10 mM Hepes, 1% heat inactivated charcoal/dextran treated FBS, sodium pyruvate, penicillin and streptomycin) before stimulation with a 12-point dose range of hGH polypeptides for 10 min at 37° C. Stimulated cells were fixed with 1% formaldehyde before permeabilization with 90% ice-cold methanol for 1 hour on ice. The level of STAT5 phosphorylation was detected by intra-cellular staining with a primary phospho-STAT5 antibody (Cell Signaling Technology, Beverly, Mass.) at room temperature for 30 min followed by a PE-conjugated secondary antibody. Sample acquisition was performed on the FACS Array with acquired data analyzed on the Flowjo software (Tree Star Inc., Ashland, Oreg.). EC50 values were derived from dose response curves plotted with mean fluorescent intensity (MFI) against protein concentration utilizing SigmaPlot.
# The interaction of hGH with its receptor leads to the tyrosine phosphorylation of a signal transducer and activator of transcription family member, STAT5, in the human IM-9 lymphocyte cell line.
# rat GHR ECD (L43R) = molecular target: T2, rat GHR ECD (L43R); assay: Biacore analysis of binding of GH to GHR; conditions: rat GHR ECD (L43R) immobilized on a CM5 chip, bivalent analyte model
# Method: Cloning and purification of rat GH receptor The extracellular domain of rat GH receptor (GHR ECD, amino acids S29-T238) was cloned into pET20b vector (Novagen) between Nde I and Hind III sites in frame with C-terminal 6H is tag. A mutation of L43 to R was introduced to further approximate the human GH receptor binding site (Souza et al., Proc Natl Acad Sci USA. (1995) 92(4): 959-63). Recombinant protein was produced in BL21 (DE3) E. coli cells (Novagen) by induction with 0.4 mM IPTG at 30° C. for 4-5 hours. After lysing the cells, the pellet was washed four times by resuspending in a dounce with 30 mL of 50 mM Tris, pH 7.6, 100 mM NaCl, 1 mM EDTA, 1% Triton X-100, and twice with the same buffer without Triton X-100. […] Refolding was accomplished by means of passing an aliquot of the inclusion body solution through a S100 (Sigma) gel filtration column, equilibrated with 50 mM Tris, pH 7.8, 1 M L-arginine, 3.7 mM cystamine, 6.5 mM cysteamine. Fractions containing soluble protein were combined and dialyzed against 50 mM Tris, pH 7.6, 200 mM NaCl, 10% glycerol. The sample was briefly centrifuged to remove any precipitate and incubated with an aliquot of Talon resin (Clontech), according to manufacturer's instructions. After washing the resin with 20 volumes of dialysis buffer supplemented with 5 mM imidazole, protein was eluted with 120 mM imidazole in dialysis buffer. Finally, the sample was dialyzed overnight against 50 mM Tris, pH 7.6, 30 mM NaCl, 1 mM EDTA, 10% glycerol, centrifuged briefly to remove any precipitate, adjusted to 20% glycerol final concentration, aliquoted and stored at −80 C. Concentration of the protein was measured by OD(280) using calculated extinction coefficient of ε=65,700 M^−1*cm^−1.
# Approximately 600-800 RUs of soluble GHR ECD was immobilized on a Biacore™ CM5 chip, using a standard amine-coupling procedure, as recommended by the manufacturer. […] See, e.g., Cunningham et al. J Mol. Biol. (1993) 234(3): 554-63 and Wells J A. Proc Natl Acad Sci USA (1996) 93(1): 1-6).
# Various concentrations of wild type or mutant GH (0.1-300 nM) in HBS-EP buffer (Biacore™, Pharmacia) were injected over the GHR surface at a flow rate of 40 μl/min for 4-5 minutes, and dissociation was monitored for 15 minutes post-injection. The surface was regenerated by a 15 second pulse of 4.5M MgCl2. […] Reference cell with no receptor immobilized was used to subtract any buffer bulk effects and non-specific binding.
# Kinetic binding data obtained from GH titration experiments was processed with BiaEvaluation 4.1 software (BIACORE™). […] Equilibrium dissociation constants (Kd) were calculated as ratios of individual rate constants (koff/kon).
# [4] = On day 14, after 2 weekly s.c. doses
# [5] = after the first dose, curve fitting
# [6] = curve fitting of the AUC values from the first dose
# [7] = curve fitting of the Cmax values from the first dose
molecule,measurement,setting,value
unPEGylated GH: unPEGylated GH administered weekly at 2.1 mg/kg in hypophysectomized rats [reference compound],body weight gain,[1]; weekly at 2.1 mg/kg dose,failed to induce body weight gain
"PEG-^ahGH: PEGylated hGH of SEQ ID NO:2, para-acetylphenylalanine at position 35 linked via an oxime bond to a linear 30 kDa PEG",bodyweight change on day 14,[1]; 1.0 mg/kg on days 0 and 7,27.02 (+/−3.97) %
same,bodyweight change on day 14 from day 0,[1]; 2.1 mg/kg on days 0 and 7,33.66 (+/−7.55) %
same,"ED50, Duration of IGF-1 Above Efficacious Level",[1]; After single s.c. dose,0.173 mg/kg
same,"ED50, IGF-1 AUC Above Efficacious Level",[1]; After single s.c. dose,0.909 mg/kg
same,"ED50, IGF-1 Induction: IGF-1 Cmax",[1]; After single s.c. dose,0.136 mg/kg
same,"Range of Effect (Eo-Emax), Duration of IGF-1 Above Efficacious Level",[1]; After single s.c. dose,0 to 8.84 days
same,"Range of Effect (Eo-Emax), IGF-1 AUC Above Efficacious Level","[1]; After single s.c. dose, AUC above 162 ng/mL","0-5,029.8 ng × hr/mL"
same,"ED50, Tibial Bone Length",[1]; [4],0.424 mg/kg
same,"Range of Effect (Eo-Emax), Percent Bodyweight Change",[1]; [4],7.17-50.65%
same,"Range of Effect (Eo-Emax), Tibial Bone Length",[1]; [4],30.52-33.67 mm
same,dose-sparing effect over Genotropin (percent bodyweight change),[1]; PEG-ahGH 1.0 mg/kg on days 0 and 7 vs Genotropin 0.3 mg/kg/day,~50%
same,dose-sparing effect when compared to Genotropin (tibial bone length),[1]; PEG-ahGH 0.42 to 1.0 mg/kg weekly vs daily Genotropin equivalent to 2.1 mg/kg weekly,≥ 50%
same,maximum duration of IGF-1 concentration above the efficacious level,[1]; [5],8.84 days
same,minimum duration of IGF-1 concentration above the efficacious level,[1]; [5],0 days
same,Emax IGF-1 AUC above efficacious level,[1]; [6],"5,029.8 ng×hr/mL"
same,Eo IGF-1 AUC above efficacious level,[1]; [6],0 ng·h/mL
same,maximum (Emax) IGF-1 Cmax,[1]; [7],"1,136.2 ng/mL"
same,minimum (Eo) IGF-1 Cmax,[1]; [7],136.7 ng/mL
same,maximum percent bodyweight change,"[1]; day 14, curve fitting",50.65%
same,minimum percent bodyweight change,"[1]; day 14, curve fitting",7.17%
same,plasma IGF-1 levels throughout the study,"[1]; dosed weekly (days 0 and 7) with increasing dose, FIG. 28","robust, dose-dependent increase in IGF-1"
same,plasma concentration (hGH ELISA),"[2]; hypophysectomized rats, PEG-ahGH s.c. on days 0 and 7, Genotropin daily",dose-dependent increase in PEG-^ahGH Cmax
same,apparent terminal half-life,"[2]; in rat, subcutaneous",7.05 (+/−0.47) hours
"Genotropin: commercial preparation of hGH, Genotropin™ (Pfizer) [reference compound]",bodyweight change on day 14 from day 0,[1]; daily treatment at 0.3 mg/kg/day,27.74 (+/−7.92) %
human prolactin: human prolactin (protein) LPICPGGAARCQVTLRDLFDRAVVLSHYIHNLSSEMFSEFDKRYTHGRGFITKAINSCHTSSLATPEDKEQAQQMNQKDFLSLIVSILRSWNEPLYHLVTEVRGMQEAPEAILSKAVEIEEQTKRLLEGMELIVSQVHPETKENEIYPVWSGLPSLQMADEESRLSAYYNLLHCLRRDSHKIDNYLKLLKCRIIHNNNC,STAT5 phosphorylation,[3],neither rat growth hormone nor human prolactin resulted in detectable STAT5 phosphorylation
rat GH WT: wild type rat growth hormone (protein) FPAMPLSSLFANAVLRAQHLHQLAADTYKEFERAYIPEGQRYSIQNAQAAFCFSETIPAPTGKEEAQQRTDMELLRFSLLLIQSWLGPVQFLSRIFTNSLMFGTSDRVYEKLKDLEEGIQALMQELEDGSPRIGQILKQTYDKFDANMRSDDALLKNYGLLSCFKKDLHKAETYLRVMKCRRFAESSCAF,STAT5 phosphorylation,[3],neither rat growth hormone nor human prolactin resulted in detectable STAT5 phosphorylation
same,kon,rat GHR ECD (L43R),33000 M⁻¹ s⁻¹

# Source: patent US8143216B2, “Modified human growth hormone” (Ambrx, Inc., priority 2004, dated 2012)
